Values quoted from earlier work in patent US20070087333A1, “Method to detect antigen-specific cytolytic activity” (Erasmus Universiteit Rotterdam, priority 2004, published 2007).

What was measured:
[1] = system: TCC-C10 CTL clone; conditions: NP418-426 epitope variants, 51Cr-release assay, reference [2]; read-out: EC50 value of the peptide variant (functional avidity)
[2] = system: TCC3180 CTL clone; conditions: NP418-426 epitope variants, 51Cr-release assay, reference [2]; for EC50: read-out: EC50 value of the peptide variant (functional avidity)

Substance	EC50 [1]	EC50 [2]	EC50 value of the peptide variant (functional avidity) [2]
NP01: HLA-B*3501 epitope NP418-426 peptide variant of influenza NP strain A/NL/18/94 (LPFEKSTVM; Derived from influenza virus genes encoding NP strain A/NL/18/94 (NP01))	~0.8 nM	0.5 nM	
NP02: HLA-B*3501 epitope NP418-426 peptide variant of influenza NP strain A/HK/2/68 (LPFDKPTIM; Derived from influenza virus genes encoding NP strain A/HK/2/68 (NP02))	> 5000 nM	26 nM	
NP03: HLA-B*3501 epitope NP418-426 peptide variant of influenza NP strain A/PR/8/34 (LPFDRTTIM; Derived from influenza virus genes encoding NP strain A/PR/8/34 (NP03))	> 10000 nM		l lOO
